Test results taken from patent US20110129544A1, “Bone/Cartilage Formation-Stimulation Agent” (priority 2007, published 2011).

Experiments:
[1] = system: osteoblastic cell strain MC3T3-E1; test: Growth of cultured osteoblastic cell (DNA amount, PicoGreen); format: cell-based, mouse; conditions: MC3T3-E1, differentiation medium, 16 days (FIG. 4)
Experimental: An osteoblastic cell strain MC3T3-E1 was cultured on α-MEM (growth medium) containing 5% FBS and 10 μg/mL gentamicin. When the cell became confluent, the cell was collected by 0.25% trypsin solution, and was subjected to seeding to a 96-well plate at 4×10^4/0.2 mL/well with the growth medium. After 24 hours incubation, the culture medium was replaced with a growth medium (differentiation medium) containing 50 μg/mL ascorbic acid, 10 mmol/L β-glycerophosphoric acid, and 10 nmol/L dexamethasone. At the same time, CS-A, CS-C, CS-D or CS-E used in the first example and the second example was dissolved and diluted by a phosphate buffered saline (PBS (−)), and then added to the medium. After 16 days passed from when the medium was replaced with the differentiation medium, a culture supernatant was eliminated, the cell was rinsed by PBS (−), and dissolved by 1% NP-40, and a cell lysate was collected.
Regarding a measurement of a DNA amount, PicoGreen dsDNA Quantitation kit (made by Molecular Probes corporation) was used, and a DNA amount was measured from a fluorescence intensity (Ex: wavelength 485 nm, Em: wavelength 535 nm) with a Calf Thymus DNA (Sigma) being as a standard.

[2] = system: osteoblastic cell strain MC3T3-E1; test: Calcified matrix formation (alizarin red) of cultured osteoblastic cell on differentiation medium; format: cell-based, mouse
Experimental: Using an osteoblastic cell strain MC3T3-E1 originating from a mouse skull bone, an action to osteoblactic cell differentiation was checked. MC3T3-E1 cell was cultured on α-MEM (growth medium) containing 5% fetal bovine serum (FBS) and 10 μg/ml gentamicin. When the cell became confluent, the cell was collected using 0.25% trypsin solution, and was subjected to seeding to a 48-well plate at 1×10^4/0.5 mL/well with the growth medium. After 24 hours passed from the cultivation, the culture medium was replaced with a growth medium (differentiation medium) containing 50 μg/mL ascorbic acid, 10 mmol/L β-glycerosphoric acid, and 10 nmol/L dexamethasone. At the same time, CS-A, CS-B, CS-C, CS-E, CS-H or CPS was added to the medium. After 16 days passed from when the medium was replaced with the differentiation medium, a culture supernatant was eliminated, the cell was rinsed by PBS (−), dissolved by 1% Nonidet P-40 (NP-40, registered trademark), and a cell lysate was collected. The cell on a plate was fixed by 15% formalin, a calcified matrix was dyed by 40 mmol/L alizarin red dyeing (pH 4.2)[…], and rinsed by pure water. Alizarin red pigments in the plate were dissolved by 10% formic acid, and light absorption at a wavelength of 415 nm was observed.
An osteoblastic cell strain MC3T3-E1 was cultured on α-MEM (growth medium) containing 5 FBS and 10 μg/mL gentamicin. When the cell became confluent, the cell was collected by 0.25 trypsin solution, and was subjected to seeding to a 96-well plate at 1×10^4/0.2 mL/well with the growth medium. After 24 hours incubation, the culture medium was replaced with a growth medium (differentiation medium) containing 50 μg/mL ascorbic acid, 10 mmol/L β-glycerophosphoric acid, and 10 nmol/L dexamethasone. At the same time, CS-A, CS-C or CS-D dissolved and diluted by a phosphate buffered saline (PBS (−)) was added to the medium. After 10 days passed from when the medium was replaced with the differentiation medium, a culture supernatant was eliminated, the cell was rinsed by PBS (−), and dissolved by 1% NP-40 (registered trademark), and a cell lysate was collected. The cell on the plate was fixed by 15% formalin, a calcified matrix was dyed by 40 mmol/L alizarin red dyeing (pH 4.2) liquid, and then rinsed by pure water. Alizarin red pigments in the plate were dissolved by 10% formic acid, and light absorption at a wavelength of 415 nm was observed.

MC3T3-E1 cell [3] = test: Calcification of osteoblastic cell cultured on calcium phosphate (OCP or HA coating); format: cell-based, mouse
Experimental: (§1) Octacalcium phosphate (OCP) and hydroxyapatite (HA, apaceram, made by pentax corporation) were broken into powders by a mortar, and powders which passed through a stainless mesh (pore size: 53 μm) were used for the test. 1 mg of OCP or HA powders were suspended in 1 mL of distilled water, and added to a 48-well plate 150 μL by 150 μL (0.15 mg/well). It was dried for one night at 80° C. by a dryer, sterilized by 70% ethanol, and used for the test.
(§2) An MC3T3-E1 cell was cultured on α-MEM (growth medium) containing 5% FBS and 10 μg/mL gentamicin. When the cell became confluent, the cell was collected by 0.25 trypsin solution, and was subjected to seeding to a 48-well plate at 8×10^4/0.5 […] with the growth medium. […] Regarding a measurement of a DNA amount, PicoGreen dsDNA Quantitation kit (made by Molecular Probes corporation) was used, and a DNA amount was measured from a fluorescence intensity (Ex: wavelength 485 nm, Em: wavelength 535 nm) with a Calf Thymus DNA (Sigma) being as a standard.
Regarding an evaluation of calcification, a calcified matrix produced by the cell on the plate was fixed by 15% formalin, dyed by 40 mmol/L alizarin red dyeing (pH 4.2) liquid, rinsed by deionization water, dissolved by 10% formic acid, and then light absorption was measured.

[4] = system: swine knee joint cartilage cell; test: Collagen synthesis of cultured cartilage cell in alginate gel beads (three-dimensional culturing); format: cell-based; conditions: 100 μg/mL
From the text: A cartilage cell was separated from a swine knee joint cartilage as follow. A posterior leg of an LWD-kind pig about 1-year-old was purchased from SIMODA animal industry limited private company. After a knee joint was exposed, a joint cartilage of a femur was acquired aseptically. Thereafter, a cell originating from a joint cartilage (hereinafter, “cartilage cell”) was separated in accordance with a technique of Mok S. S. et al (J. Biol. Chem., 1994, 269, 33021 to 33027) while modifying some parts of such a technique.
The acquired cartilage was put into DMEM/F-12 culture medium (a culture medium which contained Dulbecco's modified eagle and Ham's F12 at 1:1) containing 0.4% actinase (made by KAKEN pharmaceutical corporation) and 10 μg/mL gentamicin (made by Invitrogen corporation), and processed for 1 hour at 37° C. while being stirred by a stirrer under a condition where 5% of CO2 was present. After the culture medium was eliminated, a culture media containing 0.025% collagenase (made by Roche corporation) and 5% FBS (made by Biological Industries corporation) was added to a residue, and it was digested for 16 hours at 37° C. under the presence of 5% of CO2. After digested, the cell was rinsed, collected by 70 μm cell strainer (made by Becton Dickinson corporation), and a number of cells were measured using a counting chamber. […]

MC3T3-E1 cell [5] = test: Growth of osteoblastic cell cultured on calcium phosphate (OCP or HA coating), DNA amount; format: cell-based, mouse
Experimental: as §1
as §2, with “medium. After 24 hours incubation, the culture medium was replaced with a growth medium (differentiation medium) containing 50 μg/mL ascorbic acid, 10 mmol/L β-glycerophosphoric acid, and 10 nmol/L dexamethasone, while at the same time CS-E was added.” for “medium.”

[6] = system: osteoblastic cell strain MC3T3-E1; test: Alkaline phosphatase (ALP) activity of cultured osteoblastic cell; format: cell-based, mouse; conditions: MC3T3-E1, differentiation medium, 8 days, p-NP amount (FIG. 3)
Experimental: An osteoblastic cell strain MC3T3-E1 was cultured on α-MEM (growth medium) containing 5% FBS and 10 μg/mL gentamicin. When the cell became confluent, the cell was collected by 0.25 trypsin solution, and was subjected to seeding to a 48-well plate at 8×10^4/0.5 mL/well with the growth medium. After 24 hours incubation, the culture medium was replaced with a growth medium (differentiation medium) containing 50 μg/mL ascorbic acid, 10 mmol/L β-glycerophosphoric acid, and 10 nmol/L dexamethasone. At the same time, CS-C or CS-E used in the first example was dissolved and diluted by a phosphate buffered saline (PBS (−)), and then added to the medium. After 8 days passed from when the medium was replaced with the differentiation medium, a culture supernatant was eliminated, the cell was rinsed by PBS (−), and dissolved by 1% NP-40 (registered trademark), and a cell lysate was collected.
Regarding alkaline phosphatase (ALP) activity, a p-nitrophenol (p-NP) amount created by mixing the cell lysate with p-nitrophenylphosphate (Sigma) and by performing incubation on it for 10 minutes at 37° C. was measured at OD 415 nm, and a p-NP amount was calculated from an analytical curve.

[7] = 10 days, 96-well plate, absorption 415 nm (FIG. 2)
[8] = 16th day of cultivation, 48-well plate, absorption 415 nm (FIG. 1)

chondroitin sulfate D [CS-D]
growth of an osteoblastic cell (DNA amount) [1]: not observed | formation of a calcified matrix dyed by alizarin red [2, 7]: significantly promoted

chondroitin sulfate E [CS-E]
production of a calcified matrix dyed by alizarin red (MC3T3-E1 cell [3]; HA coating, 12th day of cultivation (FIG. 5B)): promoted production of a calcified matrix | production of a calcified matrix dyed by alizarin red (MC3T3-E1 cell [3]; OCP coating, 16th day of cultivation (FIG. 5A)): promoted production of a calcified matrix | collagen content per twenty alginate gel beads ([4]; 6 days three-dimensional culturing (FIG. 7)): significantly increased | collagen content per DNA ([4]; 6 days three-dimensional culturing (FIG. 8)): significantly increased | growth of an osteoblastic cell (DNA amount) [1]: significantly promoted | growth of an osteoblastic cell (DNA amount) (MC3T3-E1 cell [5]; HA coating (FIG. 6B)): not significant but a cell growth promoting action was observed | growth of an osteoblastic cell (DNA amount) (MC3T3-E1 cell [5]; OCP coating, 16th day of cultivation (FIG. 6A)): significantly promoted | ALP activity (osteoblastic cell differentiation marker) [6]: significantly enhanced | formation of a calcified matrix dyed by alizarin red [2, 8]: significantly promoted

chondroitin sulfate H [CS-H]
formation of a calcified matrix dyed by alizarin red [2, 8]: significantly promoted

polysulfated chondroitin sulfate [CPS]
formation of a calcified matrix dyed by alizarin red [2, 8]: significantly promoted

chondroitin sulfate B [CS-B]
formation of a calcified matrix dyed by alizarin red [2, 8]: not observed

Chondroitin sulfate A [CS-A]
growth of an osteoblastic cell (DNA amount) [1]: not observed | formation of a calcified matrix dyed by alizarin red [2, 8]: not observed | formation of a calcified matrix dyed by alizarin red [2, 7]: not observed

chondroitin sulfate C [CS-C, reference compound]
growth of an osteoblastic cell (DNA amount) [1]: not observed | ALP activity (osteoblastic cell differentiation marker) [6]: not observed | formation of a calcified matrix dyed by alizarin red [2, 8]: not observed | formation of a calcified matrix dyed by alizarin red [2, 7]: not observed
